Data: PubChem BioAssay (NCI)
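96-well plates; 48 h exposure; 5 concentrations. Endpoints by linear interpolation between flanking doses. Not reached: highest tested concentration assigned. At the TGI there is no net growth.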

Tests used:
Assay in all cases: DTP human tumour cell line panel, 48 h
[1] = test system: HCT-116 colon
[2] = test system: PC-3 prostate
[3] = test system: NCI/ADR-RES ovarian
[4] = test system: SF-539 CNS
[5] = test system: M14 melanoma
[6] = test system: RPMI-8226 leukemia
[7] = test system: IGROV1 ovarian
[8] = test system: DU-145 prostate
[9] = test system: HOP-62 NSCLC
[10] = test system: MDA-N
[11] = test system: U251 CNS
[12] = test system: CAKI-1 renal
[13] = test system: K-562 leukemia
[14] = test system: SK-MEL-5 melanoma
[15] = test system: OVCAR-4 ovarian
[16] = test system: MDA-MB-435
[17] = test system: UO-31 renal
[18] = test system: HS 578T breast
[19] = test system: MALME-3M melanoma

Compound | TGI [1] [µM] | TGI [2] [µM] | TGI [3] [µM] | TGI [4] [µM] | TGI [5] [µM] | TGI [6] [µM] | TGI [7] [µM] | TGI [8] [µM] | TGI [9] [µM] | TGI [10] [µM] | TGI [11] [µM] | TGI [12] [µM] | TGI [13] [µM] | TGI [14] [µM] | TGI [15] [µM] | TGI [16] [µM] | TGI [17] [µM] | TGI [18] [µM] | TGI [19] [µM]
COC(=O)CCSC1=CC(=O)c2nc3ccccc3c3ccnc1c23 | 42.2 | 36.7 | 46.6 | 29.8 | 47.2 | > 100 | 34.5 | 48.1 | > 100 | 87.2 | > 100 | 42.5 | > 42 | > 53.5 | 41.9 | > 27.5 | 31.7 | 67.8 | 
COc1cc2c(cc1OC)CN1CCc3ccccc3CC1C2 (configuration not stated) | > 100 | > 100 | > 100 | > 100 | > 100 |  | > 100 | > 100 | > 100 | > 100 | > 100 | > 100 | > 100 | > 100 | 98.2 | > 100 | > 100 | > 100 | > 100
C=CCN1C[C@@H](C)N([C@@H](c2ccccc2)c2ccc(C(=O)N(CC)CC)cc2)C[C@@H]1C | > 100 | > 100 | > 100 | > 100 | > 100 | > 100 | > 100 | > 100 | > 100 | > 100 | > 100 | > 100 |  | > 100 | > 100 | > 100 | > 100 | > 100 | > 100
CC(C)N(C(=O)c1ccc(NCc2cc(O)ccc2O)cc1)C(C)C | 29.6 | 52.3 | 42.9 | 34 | 35.7 |  | 64.8 | 30 | 69.4 | 42 | 32.6 | 27.2 | > 100 | 37.8 | 28.3 | 40.9 | 21.3 | 78.7 | 28.9
CCOC(=O)c1nc2cc(C(F)(F)F)ccc2nc1Oc1ccc(C(=O)OC)cc1 | > 100 | > 100 | > 100 | > 100 | > 100 | > 100 | > 100 | > 100 |  | > 100 | > 100 | > 100 | > 100 | > 100 | > 100 | > 100 | > 100 | > 100 | > 100
O=c1c2ccccc2n2n1Cc1ccccc1C2 | > 100 | > 100 | > 100 | > 100 |  | > 100 | > 100 | > 100 | > 100 | > 100 | > 100 | > 100 | > 100 | > 100 | > 100 | > 100 | > 100 | > 100 | > 100
CN1CC(S(=O)(=O)c2ccccc2)CC(S(=O)(=O)c2ccccc2)C1c1ccccc1 (configuration not stated) | 22.9 | 27.1 | > 100 | 36.9 | 42.1 |  | > 100 | 60.8 | 54.6 | 28.8 | 25.8 | 26 | 95.2 | 28.6 | 34.5 | 28.3 | 29.4 | 84.1 | 27.6
O=C(Nn1c(-c2ccccc2)nc2ccccc2c1=O)c1ccc(O)cc1 | > 100 | > 100 | > 100 | > 100 | > 100 | > 100 | > 100 | > 100 | > 100 | > 100 | > 100 |  | > 100 | > 100 | > 100 | > 100 | > 100 | > 100 | > 100
O=C(Nc1ccc(N2C(=O)CSC2c2cccs2)cc1)c1ccc(N2C(=O)CSC2c2cccs2)cc1 (configuration not stated) | > 100 | > 100 | > 100 | > 100 | > 100 |  | > 100 | > 100 | > 100 | > 100 | > 100 | > 100 | > 100 | > 100 | > 100 | > 100 | > 100 | > 100 | > 100
CCN(CC)C(=O)N[C@@H](Cc1ccccc1)C(=O)NC | > 100 | > 100 | > 100 |  | > 100 | > 100 | > 100 | > 100 | > 100 | > 100 | > 100 | > 100 | > 100 | > 100 | > 100 | > 100 | > 100 | > 100 | > 100
COc1cc(S(=O)(=O)Nc2ccc(-c3csc(/N=C\C=C\c4ccccc4)n3)cc2)ccc1Cl | > 100 | 56.7 | > 100 | 59.8 | > 100 | > 100 | > 100 | > 100 | > 100 | > 100 |  | > 100 | > 100 | > 100 | > 100 | > 100 | > 100 | > 100 | > 100
O=C1c2cscc2C(=O)c2c(OCc3ccccc3)ccc(OCc3ccccc3)c21 | > 100 | > 100 | > 100 | > 100 | > 100 | > 100 | > 100 | > 100 | > 100 | > 100 |  | > 100 | > 100 | > 100 | > 100 | > 100 | > 100 | > 100 | > 100
Cc1cn(CCCCOC(=O)NC(CCCNC(N)=O)C(=O)O)c(=O)[nH]c1=O (configuration not stated) | > 100 | > 100 | > 100 | > 100 | > 100 | > 100 | > 100 | > 100 | > 100 | > 100 | > 100 | > 100 | > 100 |  | > 100 | > 100 | > 100 | > 100 | 
Nc1ccc(-c2nc3ccccc3s2)cc1F | 32.9 | > 100 | > 100 |  | > 100 |  | > 100 | > 100 | > 100 | > 100 | > 100 | 54.4 | > 100 | 40.9 | > 100 | > 100 | > 100 | > 100 | > 100
COC(=O)c1cn(CCCCO)nn1 | > 100 | > 100 | > 100 | > 100 |  |  | > 100 | > 100 | > 100 | > 100 | > 100 | > 100 |  | > 100 | > 100 | > 100 | > 100 | > 100 | > 100
Cc1cccc(Nc2nc(NNC(=O)Cc3ccccc3)nc(NNC(=O)c3ccncc3)n2)c1 | > 10 | > 10 | > 10 | > 10 | > 10 | > 10 | > 10 | > 10 | > 10 | > 10 |  | > 10 |  | > 10 | > 10 | > 10 | > 10 | > 10 | > 10
Nc1nc(NCC2(CO)CC(CCc3ccccc3)C2)cc(=O)[nH]1 (configuration not stated) | > 100 | > 100 | > 100 |  | > 100 | > 100 | > 100 | > 100 | > 100 | > 100 | > 100 | > 100 | > 100 | > 100 | > 100 | > 100 | 67.8 | > 100 | > 100
Cc1ccc(N=Nc2c(C)nn(C(=O)CC(=O)Nc3ccc(Cl)cc3)c2C)cc1C | > 100 | > 100 | > 100 | > 100 | > 100 | > 100 | > 100 | > 100 | > 100 | > 100 | > 100 | > 100 |  | > 100 | > 100 | > 100 | > 100 | 30.7 | > 100
O=C1CSC(c2ccccc2[N+](=O)[O-])N1c1ccc(-n2c(-c3ccccc3)nc3ccccc3c2=O)cc1 (configuration not stated) | > 100 | > 100 | > 100 | > 100 |  | > 100 | > 100 | > 100 | 54.1 | > 100 | 32.7 | > 100 | > 100 | > 100 | > 100 | > 100 | > 100 | 54.8 | > 100
Cc1cccc2c(N)c3cccc(C(=O)NCCN4CCOCC4)c3nc12 | 24.9 | 7.19 | 42.8 | > 100 | 7.33 | > 60.4 | 3.4 | 11.6 | 7.55 | 2.91 | 20.5 | 17.3 |  | 2.46 | 6.69 | 2.12 | 8.26 | 0.43 | 1.31
Nc1ccc(-c2nc3ccccc3s2)cc1I |  | > 100 | > 100 | > 100 | > 100 | > 100 | > 100 | > 100 | > 100 | > 100 | > 88.5 | > 100 | > 100 | > 100 | > 100 | > 100 | > 100 | > 100 | > 100
O=C(Oc1ccc(OC(Oc2ccccc2)c2ccccc2)cc1)c1ccccc1 (configuration not stated) | 29.2 | > 31.6 | > 31.6 | > 31.6 | > 31.6 | 24.1 | 23.4 | > 31.6 | 19 | > 31.6 | > 100 |  | > 31.6 | > 31.6 | > 31.6 | > 31.6 | > 31.6 | > 31.6 | 18.8
CC(=O)OC(C#N)CC(C)(C)/[N+]([O-])=[N+](\[O-])C(C)(C)CC(C#N)OC(C)=O (configuration not stated) | 20.9 | 37.9 | 79.3 |  | 32.2 | 40.2 | 24 | 43.8 | 36.2 | 30.3 | 39.5 | 30.7 | 26.2 | 33.9 | 33.9 | 33.8 | 63.6 | 55.2 | 47.4
COc1cc2c(cc1O)-c1c(OC)c(O)cc3c1C(C2)N(C)CC3 (configuration not stated) | > 100 | > 100 | > 100 | > 100 | > 100 | > 100 | > 100 | > 100 |  | > 100 | > 100 | > 100 |  | > 100 | > 100 | > 100 | > 100 | > 100 | 
N#Cc1c(-c2ccccc2)c(C#N)c(=S)n(C2OCC(O)C(O)C2O)c1N (configuration not stated) |  | > 100 | > 100 | > 100 | > 100 | > 100 | > 100 | > 100 | > 100 | > 100 |  | > 100 | > 100 | > 100 |  | > 100 | > 100 | > 100 | > 100
COc1ccc(C(=O)C(CC2C(=O)CC(C)(C)C(C(=O)C(=O)Nc3c(C)cccc3C)C2=O)c2ccc(OC)cc2)cc1 (configuration not stated) | > 100 | > 100 | > 100 | > 100 | > 100 |  | > 100 | > 100 | > 100 | > 100 | > 100 | > 100 |  | > 100 | > 100 | > 100 | > 100 | > 100 | 
